Results from patent publication US11142548B2, “Agents that activate CD47 and their use in the treatment of inflammation” (SORBONNE UNIVERSITE, priority 2016, dated 2021).

How the values were obtained:
HTRA1 = biological target: T1, HTRA1 (Homo sapiens, UniProt Q92743); test: Co-incubation of recombinant TSP1 or TSP2 with recombinant HTRA1 (Coomassie staining, Western blot); assay type: biochemical; conditions: co-incubation at 37° C. for 24 h, Coomassie gel
T1 construct: purchased R & D
Procedure: WB analysis was performed using a monoclonal anti-TSP1 antibody (Abeam), as previously described (Houssier et al., PLoS Med. 2008, 5:e39). RT-PCRs primers were ordered from Taqman, reference: Hs01016151_m1.
Western blot analysis of the proteins confirmed the disappearance of the whole sized TSP1 and the appearance of several smaller bands in the co-incubated condition (FIG. 3A). […] Next the functionality of rTSP1 and HTRA1-digested TSP1 was analyzed in laser-induced subretinal inflammation in vivo. […] Accordingly, associated choroidal neovascularization, measured as the surface covered by CD102^−CNV on choroidal flatmounts at d7, underwent the same differences (FIG. 3D).

[1] = test system: subretinal IBA-1+ mononuclear monocytes; test: Laser-induced subretinal inflammation in wildtype- and Tsp1-/- mice; assay type: in vivo, mouse; conditions: wildtype- and Tsp1-/- mice, intravitreal at d3, d7; FIG. 3 statistics given for Tsp1-/- mice vs PBS
Procedure: Laser-coagulations were performed with a 532 nm ophtalmological laser mounted on an operating microscope (Vitra Laser, 532 nm, 450 mW, 50 ms, and 250 μm): Intravitreal injections of 2 μl of HTRA1 and/or TSP1 were performed using glass capillaries (Eppendorf) and a micro injector. The 2 μl injection solution contained 50 μg/ml TSP1 and HTRA1, corresponding to an intraocular concentration of 5 μg/ml of each protein assuming their dilution by approximately 1/10th in the intra-ocular volume. […] A volume of 2 μl of a 100 μM solution of either PBS, recombinant TSP1 (10 μg/ml), the 4NGG control peptide or the CD47-activating peptide PKT16 (200 μM) was injected at day 4 (when MP infiltration is maximal) and day 7 after the injury and evaluated subretinal inflammation on flatmounted RPE/choroidal flatmounts at day 10.
Eyes were enucleated, fixed in 4% PFA 30 minutes and sectioned at the limbus; the cornea and lens were discarded. […] Choroids and retinas were flatmounted and viewed with a fluorescence microscope DM5500B (Leica). IBA-1+ cells were counted on whole RPE/choroidal flatmounts and on the outer segment side of the retina. […]

microglial cells = test: Subretinal adoptive transfer and clearance of CFSE-labeled microglial cells; assay type: in vivo, mouse; conditions: 24 h after subretinal transfer into wildtype mice, co-injected TSP1 10 μg/ml
Procedure: Microglial cells were prepared from PBS-perfused mice. After dissociation of brain or retina with Neural Dissociation Kit Papain (miltenyi Biotech), 70 μm filtered cell suspensions were washed and resuspended in 75% isotonic Percoll (Percoll Plus, GE Healthcare), overlayed with 25% Percoll and PBS. Cells were centrifuged at 1000 g for 30 min at […]. The ring at the 75%/25% interface was collected, washed with PBS and centrifuged.
According to Levy et al., (EMBO Mol Med. 2015, 7:211-226), brain microglia of the indicated mouse strains were sorted as describe above, labeled in 10 μM CFSE (Life Technologies), washed and resuspended in PBS, 12000 cells (4 μL) were injected using glass microcapillaries (Eppendorf) and a microinjector in the subretinal space of anesthetized 10-14 weeks old wildtype mice. A hole was pierced with the glass capillary prior to the subretinal injection to avoid intra-ocular pressure increase and to allow retinal detachment with 4 μL of solution. The subretinal injection was verified by fundoscopy. In specific experiments, cells were co-injected with recombinant human TSP1 (10 μg/ml, R&D Systems), Eyes were enucleated after 24 hours, fixed in PFA 4% 30 minutes and labeled with DAPI. Eyes with hemorrhages were discarded. CFSE+cells in the subretinal space were quantified on flatmounts on the RPE side of the retina and on the apical side of the RPE.

T1 sequence (Q92743 23-480): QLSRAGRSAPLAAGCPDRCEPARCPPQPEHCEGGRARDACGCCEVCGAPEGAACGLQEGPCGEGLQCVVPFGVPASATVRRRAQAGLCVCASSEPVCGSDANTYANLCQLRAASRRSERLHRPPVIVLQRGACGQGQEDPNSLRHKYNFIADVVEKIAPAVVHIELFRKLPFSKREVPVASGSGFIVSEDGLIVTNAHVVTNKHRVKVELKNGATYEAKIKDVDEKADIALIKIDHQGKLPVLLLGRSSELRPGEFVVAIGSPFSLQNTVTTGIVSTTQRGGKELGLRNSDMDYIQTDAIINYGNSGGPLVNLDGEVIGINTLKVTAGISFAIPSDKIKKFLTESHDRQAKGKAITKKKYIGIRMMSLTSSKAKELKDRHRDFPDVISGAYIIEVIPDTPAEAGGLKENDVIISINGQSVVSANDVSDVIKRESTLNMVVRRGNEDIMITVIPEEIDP

Substance: recombinant TSP1: recombinant human TSP1 (R&D Systems), natural ligand and agonist of CD47
- degradation by recombinant HTRA1 (HTRA1): degrades
- reduction of laser-induced subretinal inflammation [1]: significantly reduces
- elimination of Cd47-/- microglial cells (microglial cells; CFSE+ Cd47-/- microglial cells): no effect
- elimination of Tsp1-/- microglial cells (microglial cells; CFSE+ Tsp1-/- microglial cells): reversed the phenotype
- elimination of wildtype microglial cells (microglial cells; CFSE+ wildtype microglial cells): very significantly accelerated the elimination
